Data from paper PMC3570346, “PET imaging of brain inflammation during early epileptogenesis in a rat model of temporal lobe epilepsy” (EJNMMI Research, 2012).

How the values were obtained:
[1] = [^18F]-PBR111 metabolite analysis in plasma (solid phase extraction); type: in vivo, rat; conditions: 50-min post-injection
From the text: To establish a standard curve of [^18F]-PBR111 metabolism, blood samples were obtained in four control rats (304 ± 10 g) and six KASE rats (312 ± 8 g, minor to medium SE), which were maintained under anaesthesia to mimic the conditions of the PET scan (Table 1). Animals were anaesthetised with 5% isoflurane for induction and 1% to 3% for maintenance, administered in medical oxygen. An incision was made in the inner thigh of the hind leg, and the femoral artery was exposed and loosely tied off after blunt dissection of the surrounding tissue. A polyethylene cannula filled with heparinised saline (20 IU/ml) was placed into the femoral artery and threaded 3 cm proximally.
Animals were injected intravenously with [^18F]-PBR111 (injected dose (ID) = 14.1 to 38.7 MBq). […] The line was flushed with saline, and the remaining radioactivity was measured in the line and syringe. […] Plasma samples (0.1 ml) were weighed and the radioactivity was measured in a Wallac γ-counter. […]
SPE analysis was performed on Oasis cartridges (Waters Oasis® HLB, 30 μm, 60 mg) that were preconditioned with 1 ml ethanol followed by 5 ml water. […] The radioactivity in each fraction and that remaining on the cartridge was measured with a Wallac γ-counter. Data were expressed as the percentage of unmetabolised parent compound (^18F]-PBR111) in the plasma sample. […]

[2] = target: T1, Translocator protein (TSPO) (Rattus norvegicus, UniProt P16257); assay: In vivo [^18F]-PBR111 PET imaging, Vt by two-compartment model with metabolite-corrected plasma input; parameters: Tissue distribution volume (Vt): unit not given here
T1 construct: from tissue; host or cells: brain of living male Wistar rats (control and kainic acid-induced status epilepticus)
T1 sequence (P16257 whole entry): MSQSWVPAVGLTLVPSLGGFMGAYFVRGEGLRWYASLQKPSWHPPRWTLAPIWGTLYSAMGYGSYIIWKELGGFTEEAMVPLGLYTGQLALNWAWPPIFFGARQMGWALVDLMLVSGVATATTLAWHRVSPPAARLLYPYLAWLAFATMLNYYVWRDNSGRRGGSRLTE
From the text: Seven days post-SE, rats were anaesthetised for PET imaging using isoflurane (induction 5%, maintenance 1% to 3%, in medical oxygen), and body temperature was maintained using a feedback-regulated heating pad. A catheter was implanted in the femoral artery as described above. The animal was then placed into the field-of-view of the INVEON PET/CT scanner (Siemens Medical Solutions, Knoxville, TN, USA), and physiological parameters (heart rate, respiration and body temperature) were monitored (BioVet, m2m Imaging Corp., Cleveland, OH, USA) for the entire scanning period. To avoid movement and fix tubing, the animal was restrained in the supine position using a webbed sock and adhesive tape.
The PET scan was started 20 to 30 s before the 1-min infusion of radiotracer (ID = 12.5 to 29.0 MBq, 0.05 to 0.29 nmol, max 0.4 ml in volume, as described above) for the duration of 60 min. Femoral arterial blood samples (approximately 50 μl/sample) were taken at 15-s intervals for 4 min after the commencement of the PET scan, and then at 10-, 20-, 30- and 50-min post-injections. In the last sample (100 μl), metabolites were analysed to confirm the standard metabolite correction and to calculate the partition coefficient at 50 min. Heparinised saline (20 IU) was administered after blood sampling to maintain the blood volume and to prevent hypotension. Plasma samples were collected after 10-min centrifugation of whole blood at 3,000 rpm. Whole blood and plasma samples were counted in a Wallac γ-counter, decay-corrected and weight-normalised. At the end of the PET scanning, a 10-min 70 kV/500 μA computed tomography (CT) scan was performed on each animal (for co-registration with PET data and magnetic resonance imaging (MRI) atlas).
Coincidence events were acquired into list mode files and then histogrammed into […] consecutive frames of variable duration (8 × 15 s, 6 × 20 s, 6 × 60 s, 3 × 180 s, and 5 × 500 s). The volumes were then reconstructed with an iterative algorithm 3D-OSEM/FastMap. PET images (128 × 128 × 159) were co-registered with CT scans and mapped to a MRI-based rat brain atlas. Left and right time activity curves (TACs) were derived from eight VOIs such as the frontal cortex, striatum, parietal cortex, hippocampus, thalamus, amygdala, occipital cortex and colliculi using the Anatomist package ( http://brainvisa.info). Also, the hypothalamus, brainstem, pons and cerebellum were extracted from the reconstructed images. Data were then converted into activity concentration (kBq/ml) using cross calibration factors.
Firstly, a two-compartment model was used to assess the ‘apparent’ volume of distribution (Vt), or the ‘volume’ of the tracer would occupy if the tracers were to adopt the same concentration in the tissue as in the blood. For each VOI, Vt was calculated using their TACs, the metabolite-corrected plasma curve as input function and the whole blood curve to model the kinetics of the vascular fraction (5%) in the cerebral tissue.

[3] = Stability of [^18F]-PBR111 in whole rat blood (1 h on the bench); type: in vitro ADME; conditions: samples from 2- and 5-min post-injection left on the bench for 1 h vs processed immediately
Protocol: Animals were injected intravenously with [^18F]-PBR111 (injected dose (ID) = 14.1 to 38.7 MBq). The tracer was infused via the dorsal penile vein (maximum volume of 0.3 ml) using a Harvard Apparatus Pump 11 plus syringe pump (Holliston, MA, USA) over a constant time interval of 1 min. The line was flushed with saline, and the remaining radioactivity was measured in the line and syringe. Different ranges of tracer mass (0.07 to 4.00 nmol) were injected to evaluate whether this would affect the tracer metabolism. Arterial blood samples (0.2 ml) were withdrawn via a cannula implanted in the femoral artery from 2 to 60 min after the start of injection. The whole blood was then centrifuged at 3,000 rpm for 10 min, and the plasma was collected. Plasma samples (0.1 ml) were weighed and the radioactivity was measured in a Wallac γ-counter. At 2- and 5-min post-injections, the samples were taken in duplicate. One sample was left on the bench for 1 h, and the other was processed immediately to evaluate the stability in whole rat blood.

[4] = target: T2, TSPO (Rattus norvegicus, UniProt P16257); assay: In vitro [^125I]-CLINDE autoradiography on coronal brain sections (post-mortem); type: binding
T2 construct: from tissue; host or cells: coronal cryostat sections (20 μm) of frozen rat brain, control and KASE animals
T2 sequence (P16257 whole entry): as above
Protocol: TSPO binding density was assessed using the selective TSPO ligands, ^125I]-CLINDE and ^18 F]-PBR111 as described previously. Briefly, adjacent sets of unfixed […] sections were incubated in triplicate with 3 nM ^125I]-CLINDE or 4 nM ^18F]-PBR111 in 50 mM Tris buffer (pH 7.4 at 4°C) for 1 h. Non-specific binding was assessed with co-incubation with 10 μM PK11195 (Sigma-Aldrich). Sections were washed in ice cold Tris buffer (2 × 2 min), then distilled water (1 min), before being air dried on a slide warmer at 37°C. They were exposed to film, with ^14C] polymer standards (ARC, USA) for calibration of optical density to becquerel per milligram activity. Films were scanned using a BioRad GS-800 calibrated densitometer (Bio-Rad Laboratories, Hercules, CA, USA), and exposure times were chosen such that the optical density range of the sections was within the pseudolinear response range of the film.
Autoradiographic images were calibrated (cubic fit between optical density and [^14C]-standard values) and quantified using ImageJ ( http://rsbweb.nih.gov/ij/). […] Regions of interest were drawn blinded for control and KASE groups, converted to kilobecquerel per milligram and specific binding calculated.
Coronal brain sections (20 μm, −3.24 mm from bregma according to [21]) were cut using a cryostat, thaw-mounted onto Polysine® microscope slides (LabServ, Australia), and stored at −80°C. During cutting, pictures were taken in EB-injected animals to evaluate extravasation macroscopically. Adjacent sets of unfixed rat brain sections were analysed in triplicate for quantitative autoradiography for TSPO with ^125I]-CLINDE, OX-42 (microglial activation) immunohistochemistry and cresyl violet (cell loss).
Methodology regarding immunohistochemistry was performed as above. Semi-quantitative analysis included visual scoring of OX-42 signal as follows: mild (+), moderate (++) and intense (+++) OX-42 signals. For autoradiography, a preincubation step of 15 min in Tris buffer (50 mM, pH 7.4) was added to remove exogenous TSPO ligand. TSPO binding was assessed as described above in the cortex, corpus callosum, hippocampus and hippocampal subregions (CA1, CA2 and CA3/hilus), thalamus, hypothalamus, amygdala and piriform cortex. Histological verification of cell loss in hippocampal pyramidal cell layers (CA1, CA2, CA3 and hilus) was performed on Nissl-stained sections (using Cresyl Echt Violet) blinded for the treatment group.

## CCN(CC)C(=O)Cc1c(-c2ccc(OCCC[18F])cc2)nc2ccc(Cl)cn12 [[^18F]-PBR111]
[1]; control animals
  Percentage of parent compound in plasma: 20.8 ± 1.3%
[1]; severe SE animals
  Percentage of parent compound in plasma: 20.1 ± 1.3%
[2]; Amygdala, Left
  Increase (%) of Vt, KASE vs control: 288%
[2]; Amygdala, Left, Control (N = 4)
  Tissue distribution volume (Vt): 5.3 ± 0.8
[2]; Amygdala, Left, KASE (N = 4), 7 days post-SE
  Tissue distribution volume (Vt): 20.6 ± 2.8
[2]; Amygdala, Right
  Increase (%) of Vt, KASE vs control: 284%
[2]; Amygdala, Right, Control (N = 4)
  Tissue distribution volume (Vt): 6.1 ± 0.7
[2]; Amygdala, Right, KASE (N = 4), 7 days post-SE
  Tissue distribution volume (Vt): 23.4 ± 4.8
[2]; Brainstem
  Increase (%) of Vt, KASE vs control: 41%
[2]; Brainstem, Control (N = 4)
  Tissue distribution volume (Vt): 4.7 ± 0.8
[2]; Brainstem, KASE (N = 4), 7 days post-SE
  Tissue distribution volume (Vt): 6.7 ± 1.0
[2]; Cerebellum
  Increase (%) of Vt, KASE vs control: 43%
[2]; Cerebellum, Control (N = 4)
  Tissue distribution volume (Vt): 7.5 ± 0.8
[2]; Cerebellum, KASE (N = 4), 7 days post-SE
  Tissue distribution volume (Vt): 10.6 ± 1.3
[2]; Colliculi, Left
  Increase (%) of Vt, KASE vs control: 44%
[2]; Colliculi, Left, Control (N = 4)
  Tissue distribution volume (Vt): 4.0 ± 1.0
[2]; Colliculi, Left, KASE (N = 4), 7 days post-SE
  Tissue distribution volume (Vt): 5.8 ± 1.1
[2]; Colliculi, Right
  Increase (%) of Vt, KASE vs control: 70%
[2]; Colliculi, Right, Control (N = 4)
  Tissue distribution volume (Vt): 4.1 ± 1.1
[2]; Colliculi, Right, KASE (N = 4), 7 days post-SE
  Tissue distribution volume (Vt): 6.9 ± 1.8
[2]; Frontal cortex, Left
  Increase (%) of Vt, KASE vs control: 108%
[2]; Frontal cortex, Left, Control (N = 4)
  Tissue distribution volume (Vt): 5.4 ± 1.0
[2]; Frontal cortex, Left, KASE (N = 4), 7 days post-SE
  Tissue distribution volume (Vt): 11.3 ± 2.4
[2]; Frontal cortex, Right
  Increase (%) of Vt, KASE vs control: 98%
[2]; Frontal cortex, Right, Control (N = 4)
  Tissue distribution volume (Vt): 5.7 ± 1.2
[2]; Frontal cortex, Right, KASE (N = 4), 7 days post-SE
  Tissue distribution volume (Vt): 11.2 ± 2.4
[2]; Hippocampus, Left
  Increase (%) of Vt, KASE vs control: 154%
[2]; Hippocampus, Left, Control (N = 4)
  Tissue distribution volume (Vt): 3.6 ± 0.5
[2]; Hippocampus, Left, KASE (N = 4), 7 days post-SE
  Tissue distribution volume (Vt): 9.1 ± 1.1
[2]; Hippocampus, Right
  Increase (%) of Vt, KASE vs control: 159%
[2]; Hippocampus, Right, Control (N = 4)
  Tissue distribution volume (Vt): 3.6 ± 0.4
[2]; Hippocampus, Right, KASE (N = 4), 7 days post-SE
  Tissue distribution volume (Vt): 9.4 ± 1.6
[2]; Hypothalamus
  Increase (%) of Vt, KASE vs control: 104%
[2]; Hypothalamus, Control (N = 4)
  Tissue distribution volume (Vt): 4.0 ± 0.7
[2]; Hypothalamus, KASE (N = 4), 7 days post-SE
  Tissue distribution volume (Vt): 8.2 ± 1.4
[2]; Occipital cortex, Left
  Increase (%) of Vt, KASE vs control: 53%
[2]; Occipital cortex, Left, Control (N = 4)
  Tissue distribution volume (Vt): 9.8 ± 3.4
[2]; Occipital cortex, Left, KASE (N = 4), 7 days post-SE
  Tissue distribution volume (Vt): 15.1 ± 3.5
[2]; Occipital cortex, Right
  Increase (%) of Vt, KASE vs control: 62%
[2]; Occipital cortex, Right, Control (N = 4)
  Tissue distribution volume (Vt): 9.3 ± 1.4
[2]; Occipital cortex, Right, KASE (N = 4), 7 days post-SE
  Tissue distribution volume (Vt): 15.0 ± 1.4
[2]; Parietal cortex, Left
  Increase (%) of Vt, KASE vs control: 110%
[2]; Parietal cortex, Left, Control (N = 4)
  Tissue distribution volume (Vt): 4.5 ± 0.6
[2]; Parietal cortex, Left, KASE (N = 4), 7 days post-SE
  Tissue distribution volume (Vt): 9.5 ± 1.1
[2]; Parietal cortex, Right
  Increase (%) of Vt, KASE vs control: 136%
[2]; Parietal cortex, Right, Control (N = 4)
  Tissue distribution volume (Vt): 4.9 ± 0.8
[2]; Parietal cortex, Right, KASE (N = 4), 7 days post-SE
  Tissue distribution volume (Vt): 11.6 ± 2.0
[2]; Pons
  Increase (%) of Vt, KASE vs control: 78%
[2]; Pons, Control (N = 4)
  Tissue distribution volume (Vt): 4.2 ± 0.9
[2]; Pons, KASE (N = 4), 7 days post-SE
  Tissue distribution volume (Vt): 7.5 ± 1.8
[2]; Striatum, Left
  Increase (%) of Vt, KASE vs control: 180%
[2]; Striatum, Left, Control (N = 4)
  Tissue distribution volume (Vt): 2.8 ± 0.6
[2]; Striatum, Left, KASE (N = 4), 7 days post-SE
  Tissue distribution volume (Vt): 8.0 ± 1.2
[2]; Striatum, Right
  Increase (%) of Vt, KASE vs control: 156%
[2]; Striatum, Right, Control (N = 4)
  Tissue distribution volume (Vt): 3.0 ± 0.5
[2]; Striatum, Right, KASE (N = 4), 7 days post-SE
  Tissue distribution volume (Vt): 7.8 ± 1.1
[2]; Thalamus, Left
  Increase (%) of Vt, KASE vs control: 173%
[2]; Thalamus, Left, Control (N = 4)
  Tissue distribution volume (Vt): 2.6 ± 0.5
[2]; Thalamus, Left, KASE (N = 4), 7 days post-SE
  Tissue distribution volume (Vt): 7.0 ± 1.8
[2]; Thalamus, Right
  Increase (%) of Vt, KASE vs control: 155%
[2]; Thalamus, Right, Control (N = 4)
  Tissue distribution volume (Vt): 2.8 ± 0.5
[2]; Thalamus, Right, KASE (N = 4), 7 days post-SE
  Tissue distribution volume (Vt): 7.1 ± 1.4
[3]
  Stability in whole rat blood: not further metabolised in vitro in whole rat blood

## CCN(CC)C(=O)Cc1c(-c2ccc(I)cc2)nc2ccc(Cl)cn12 [[^125I]-CLINDE]
[4]; Hippocampus (CA1)
  % increase of specific binding, KASE vs control: 613%
[4]; Hippocampus (CA2)
  % increase of specific binding, KASE vs control: 491%
[4]; Hippocampus (CA3)/hilus
  % increase of specific binding, KASE vs control: 860%
[4]; Hippocampus (whole, dorsal)
  % increase of specific binding, KASE vs control: 226%
